Type in all cases: cell-based, human
The subject of data set [1] is hCD39 mRNA. Briefly: IC50 determination / concentration-dependent hCD39 mRNA knockdown in HDLM-2 cells. The settings on record: for mRNA inhibition: HDLM-2, 3 days; for pIC50: HDLM-2 cells, hCD39 mRNA, 3 days. The protocol: HDLM-2 cells were treated for 3 days with the indicated concentration of the respective antisense oligonucleotide. Residual hCD39 expression is depicted compared to untreated control cells. hCD39 mRNA expression values were normalized to expression of the housekeeping gene HPRT1.
The antisense oligonucleotide A04040H (SEQ ID No. 3) that had shown potent activity in the first and second screening round was used as reference. HDLM-2 cells treated for 3 days with the indicated concentrations of the respective antisense oligonucleotide. hCD39 mRNA expression values were normalized to expression of the housekeeping gene HPRT1. Residual hCD39 mRNA expression relative to untreated cells (set as 100) is depicted. Depicted is the mean of triplicate wells+/−SD.
In a second experiment the concentration-dependency of effects and the IC50 values of hCD39 antisense oligonucleotides A04010H (SEQ ID No.14), A04016H (SEQ ID No.20), A04017H (SEQ ID No.21), A04020H (SEQ ID No. 24) and A04026H (SEQ ID No.30) were tested. […] HDLM-2 cells were treated with titrated amounts of the respective antisense oligonucleotide (concentrations: 10 μM, 3.3 μM, 1.1 μM, 370 nM, 120 nM, 41 nM, 14 nM, 4.5 nM). hCD39 mRNA expression was analyzed after three days of treatment. FIG. 5 and Table 9 depicts the concentration-dependent reduction of hCD39 mRNA expression by the selected hCD39 antisense oligonucleotides.
The hCD39 antisense oligonucleotides A04051H (SEQ ID No.88), A04052H (SEQ ID No.89), A04053H ([…]), A04056H (SEQ ID No.92), A04059H (SEQ ID No.94), A04060H (SEQ ID No.95), and A04061H (SEQ ID No.96) had shown potent single-dose activity in both HDLM-2 and A-172 cells. […] The antisense oligonucleotide A04040H that had shown potent activity in the first screening round was used as reference. hCD39 mRNA expression was analyzed after 3 days of treatment. FIG. 7 depicts the concentration-dependent reduction of hCD39 expression by hCD39 antisense oligonucleotides.

In data set [2] the test system is hCD39 mRNA. Description: hCD39 mRNA knockdown efficacy screen in HDLM-2 cells (single dose, gymnotic delivery, QuantiGene Singleplex). On the set-up: key to Relative hCD39 mRNA expression (compared to non-treated cells): *: values are below detection limit. The settings on record: 10 μM, 3 days; for Mean hCD39 mRNA expression normalized to HPRT1 relative to untreated control = 1: first screening round; for Relative hCD39 mRNA expression (compared to non-treated cells): second screening round, normalized to HPRT1; for Residual hCD39 mRNA expression relative to untreated cells (set as 1): third screening round. The method in brief: (§1)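 Antisense oligonucleotides given once at 10 μM without transfection reagent (gymnotic) to HDLM-2 or A-172 cells for 3 days. hCD39 mRNA measured by QuantiGene Singleplex, normalized to HPRT1 and expressed relative to untreated cells; triplicate means.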

Data set [3] has as its system hCD39 mRNA. Description: hCD39 mRNA knockdown efficacy screen in A-172 cells (single dose, gymnotic delivery, QuantiGene Singleplex). The settings on record: 10 μM, 3 days; for Mean hCD39 mRNA expression (relative to untreated cells set as 1): first screening round; for Mean hCD39 mRNA expression (relative to untreated cells set as 1) / Relative hCD39 mRNA expression (compared to non-treated cells): normalized to HPRT1; for Relative hCD39 mRNA expression (compared to non-treated cells): second screening round; for Residual hCD39 mRNA expression relative to untreated cells (set as 1): third screening round. The method in brief:
as §1

Where [4] appears, read: first screening round (Table 8).
The mark [5] stands for this setting: third screening round (Table 12).
Setting [6] is: second screening round (Table 9).

pIC50: −log10 of the molar value. l = locked nucleic acid (LNA); d = 2'-deoxy (DNA)

Regarding “+A*+C*C*C*T*G*A*G*T*T*G*T*A*A*C*+T (antisense ACCCTGAGTTGTAACT; sugars from the 5' end l2 d13 l1, all phosphorothioate, methylation of C not given here) [A04033H]”, the mRNA inhibition in data set [1] (0.0045 μM, Table 8) was 3.05%; in data set [1] (0.013 μM, Table 8), −3.30%; in data set [1] (0.04 μM, Table 8), 24.10%; in data set [1] (0.12 μM, Table 8) it was 46.98%; in data set [1] (0.4 μM, Table 8) it was 70.74%; in data set [1] (1.1 μM, Table 8), 83.81%. The mRNA inhibition was 92.79% in data set [1] (3.3 μM, Table 8) and 98.02% in data set [1] (10 μM, Table 8). Besides, in data set [1] (setting [4]), the pIC50 (in general, the IC50 on a negative log10 scale, so that one unit is a factor of ten) was 6.92. Moreover, the “Mean hCD39 mRNA expression normalized to HPRT1 relative to untreated control = 1” value in data set [2] was determined as 0.10. Further, the “Relative hCD39 mRNA expression (compared to non-treated cells)” value in data set [2] is on record as “*”; in data set [3], 0.14. The “Mean hCD39 mRNA expression (relative to untreated cells set as 1)” value in data set [3] was determined as 0.28.

For the substance “+A*+G*+A*G*T*G*C*C*T*G*A*T*C*+C*+T*+T (antisense AGAGTGCCTGATCCTT; sugars from the 5' end l3 d10 l3, all phosphorothioate, methylation of C not given here) [A04051H]”, the mRNA inhibition in data set [1] (0.45 nM, Table 12) was determined as 30.83%; in data set [1] (1.3 nM, Table 12), 15.36%; in data set [1] (4 nM, Table 12) it was 23.62%; in data set [1] (12 nM, Table 12) it was 23.14%; in data set [1] (40 nM, Table 12) it was 43.66%; in data set [1] (110 nM, Table 12), 70.34%. In addition, the mRNA inhibition was 86.77% in data set [1] (330 nM, Table 12) and 92.82% in data set [1] (1000 nM, Table 12). The pIC50 in data set [1] (setting [5]) is 7.16. Also, the “Residual hCD39 mRNA expression relative to untreated cells (set as 1)” value is given as 0.02 in data set [2] and 0.34 in data set [3].

On to “+C*+A*+G*T*C*A*A*T*C*C*T*G*C*+T*+C*+A (antisense CAGTCAATCCTGCTCA; sugars from the 5' end l3 d10 l3, all phosphorothioate, methylation of C not given here) [A04039H]”, for which the mRNA inhibition in data set [1] (0.0045 μM, Table 8) is given as 11.56%; in data set [1] (0.013 μM, Table 8), 14.30%; in data set [1] (0.04 μM, Table 8), 20.47%; in data set [1] (0.12 μM, Table 8), 44.03%; in data set [1] (0.4 μM, Table 8), 71.25%; in data set [1] (1.1 μM, Table 8), 85.22%. Further, the mRNA inhibition is recorded as 92.53% in data set [1] (3.3 μM, Table 8) and 96.54% in data set [1] (10 μM, Table 8). The substance further had a pIC50 in data set [1] (setting [4]) of 6.75. The “Mean hCD39 mRNA expression normalized to HPRT1 relative to untreated control = 1” value in data set [2] came out at 0.06. Further, the “Relative hCD39 mRNA expression (compared to non-treated cells)” value is listed as “*” in data set [2] and 0.14 in data set [3]. In addition, the “Mean hCD39 mRNA expression (relative to untreated cells set as 1)” value in data set [3] is on record as 0.27.

Turning to “+C*+T*+T*G*A*A*C*A*C*T*G*C*+G*+A*+T (antisense CTTGAACACTGCGAT; sugars from the 5' end l3 d9 l3, all phosphorothioate, methylation of C not given here) [A04017H]”, the mRNA inhibition in data set [1] (0.0045 μM, Table 9) is on record as 33.85%; in data set [1] (0.013 μM, Table 9) it was 49.62%; in data set [1] (0.04 μM, Table 9) it was 62.92%; in data set [1] (0.12 μM, Table 9), 79.03%; in data set [1] (0.4 μM, Table 9), 91.63%; in data set [1] (1.1 μM, Table 9) it was 97.05%. Also, the mRNA inhibition in data set [1] (3.3 μM, Table 9) is reported as 98.95%; in data set [1] (10 μM, Table 9), 99.37%. The pIC50 in data set [1] (setting [6]) is 7.48. Also, in data set [2], the “Mean hCD39 mRNA expression normalized to HPRT1 relative to untreated control = 1” value is 0.11. Also, the “Relative hCD39 mRNA expression (compared to non-treated cells)” value in data set [2] and in data set [3] was 0.11 in each case. In data set [3], the “Mean hCD39 mRNA expression (relative to untreated cells set as 1)” value came to 0.11.

As to “+G*+A*+T*A*G*T*T*T*C*C*A*A*T*+A*+C*+C (antisense GATAGTTTCCAATACC; sugars from the 5' end l3 d10 l3, all phosphorothioate, methylation of C not given here) [A04026H]”, the mRNA inhibition is reported as 29.98% in data set [1] (0.0045 μM, Table 9); 29.02% in data set [1] (0.013 μM, Table 9); 54.32% in data set [1] (0.04 μM, Table 9); 77.36% in data set [1] (0.12 μM, Table 9); 92.99% in data set [1] (0.4 μM, Table 9); 96.69% in data set [1] (1.1 μM, Table 9). Besides, the mRNA inhibition in data set [1] (3.3 μM, Table 9) turned out to be 99.20%; in data set [1] (10 μM, Table 9) it was 98.59%. In data set [1] (setting [6]), this substance gave a pIC50 of 7.21. The “Mean hCD39 mRNA expression normalized to HPRT1 relative to untreated control = 1” value in data set [2] stood at 0.03. Further, the “Relative hCD39 mRNA expression (compared to non-treated cells)” value in data set [2] came to 0.03; in data set [3], 0.08. In addition, in data set [3], the “Mean hCD39 mRNA expression (relative to untreated cells set as 1)” value stood at 0.07.

With “+G*+A*G*T*G*C*C*T*G*A*T*C*C*+T*+T (antisense GAGTGCCTGATCCTT; sugars from the 5' end l2 d11 l2, all phosphorothioate, methylation of C not given here) [A04010H]”, the mRNA inhibition in data set [1] (0.0045 μM, Table 9) was 20.11%; in data set [1] (0.013 μM, Table 9), 24.68%; in data set [1] (0.04 μM, Table 9) it was 52.80%; in data set [1] (0.12 μM, Table 9), 76.16%; in data set [1] (0.4 μM, Table 9), 90.86%; in data set [1] (1.1 μM, Table 9), 95.99%. For the same substance, the mRNA inhibition in data set [1] (3.3 μM, Table 9) amounted to 98.10%; in data set [1] (10 μM, Table 9) it was 98.77%. For the same substance, the pIC50 in data set [1] (setting [6]) was 7.29. Besides, in data set [2], the “Mean hCD39 mRNA expression normalized to HPRT1 relative to untreated control = 1” value came out at 0.17. In addition, the “Relative hCD39 mRNA expression (compared to non-treated cells)” value in data set [2] came to 0.15; in data set [3], 0.11. Also, in data set [3], the “Mean hCD39 mRNA expression (relative to untreated cells set as 1)” value amounted to 0.10.

Turning to “+G*+G*+T*T*T*G*T*G*T*G*A*G*A*G*C*+T (antisense GGTTTGTGTGAGAGCT; sugars from the 5' end l3 d12 l1, all phosphorothioate, methylation of C not given here) [A04060H]”, the mRNA inhibition in data set [1] (0.45 nM, Table 12) amounted to 0.00%; in data set [1] (1.3 nM, Table 12) it was 0.00%; in data set [1] (4 nM, Table 12) it was 0.00%; in data set [1] (12 nM, Table 12), 0.00%; in data set [1] (40 nM, Table 12), 49.14%; in data set [1] (110 nM, Table 12), 88.34%. The mRNA inhibition in data set [1] (330 nM, Table 12) was 96.71%; in data set [1] (1000 nM, Table 12), 97.82%. The same substance showed a pIC50 in data set [1] (setting [5]) of 7.69. In addition, the “Residual hCD39 mRNA expression relative to untreated cells (set as 1)” value in data set [2] was determined as 0.01; in data set [3], 0.08.

Regarding “+G*+G*+T*T*T*G*T*G*T*G*A*G*A*G*C*+T*+T (antisense GGTTTGTGTGAGAGCTT; sugars from the 5' end l3 d12 l2, all phosphorothioate, methylation of C not given here) [A04059H]”, the mRNA inhibition in data set [1] (0.45 nM, Table 12) stood at 1.21%; in data set [1] (1.3 nM, Table 12), 0.00%; in data set [1] (4 nM, Table 12) it was 0.00%; in data set [1] (12 nM, Table 12) it was 12.94%; in data set [1] (40 nM, Table 12), 72.06%; in data set [1] (110 nM, Table 12) it was 91.84%. Also, the mRNA inhibition in data set [1] (330 nM, Table 12) was determined as 97.46%; in data set [1] (1000 nM, Table 12), 98.31%. In data set [1] (setting [5]), this substance showed a pIC50 of 7.74. The figures for the “Residual hCD39 mRNA expression relative to untreated cells (set as 1)” value in data set [2] and in data set [3] were 0.01 and 0.09, respectively.

Values taken from patent US11959083B2, “Immunosuppression-reverting oligonucleotides inhibiting the expression of CD39” (Secarna Pharmaceuticals GmbH & Co. KG, priority 2016, dated 2024).
